Reference: publication PMC4583449, “Characterisation of (R)-2-(2-Fluorobiphenyl-4-yl)-N-(3-Methylpyridin-2-yl)Propanamide as a Dual Fatty Acid Amide Hydrolase: Cyclooxygenase Inhibitor” (PLoS ONE, 2015)

Tests used:
rat brain FAAH = biological target: T1, rat brain FAAH (Rattus norvegicus, UniProt P97612); details: racemate; read-out: IC50 FAAH, rat brain homogenates; cited from earlier work
T1 construct: the racemate was studied in rat brain homogenates, whereas mouse brain homogenates were used here; from tissue; host or cells: rat brain homogenates
T1 sequence (P97612 1-579): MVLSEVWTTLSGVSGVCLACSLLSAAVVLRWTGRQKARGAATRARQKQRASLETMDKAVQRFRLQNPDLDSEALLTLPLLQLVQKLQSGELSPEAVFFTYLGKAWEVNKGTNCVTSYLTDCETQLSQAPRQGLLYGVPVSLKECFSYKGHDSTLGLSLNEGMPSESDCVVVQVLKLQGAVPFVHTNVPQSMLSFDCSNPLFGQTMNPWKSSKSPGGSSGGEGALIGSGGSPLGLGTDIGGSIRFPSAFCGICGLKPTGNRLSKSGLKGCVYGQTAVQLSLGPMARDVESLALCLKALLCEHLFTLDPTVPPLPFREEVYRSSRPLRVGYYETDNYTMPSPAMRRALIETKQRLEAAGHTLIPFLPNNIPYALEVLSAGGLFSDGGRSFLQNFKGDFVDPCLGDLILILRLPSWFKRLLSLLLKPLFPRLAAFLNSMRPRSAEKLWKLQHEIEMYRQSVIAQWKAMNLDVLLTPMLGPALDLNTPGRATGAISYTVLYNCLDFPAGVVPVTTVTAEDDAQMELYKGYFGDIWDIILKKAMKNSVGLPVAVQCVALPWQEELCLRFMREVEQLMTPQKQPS

RAW 264.7 cells [1] = test: [3H]AEA hydrolysis by intact RAW 264.7 cells; format: cell-based, mouse; details: LPS + INF-γ-treated cells; 100 nM [3H]AEA, 60 min; URB597 1 μM, flurbiprofen and (R)-Flu-AM1 10 μM
RAW 264.7 cells [2] = test: Lipid profile (prostaglandins, 2-AG, AEA and related lipids) of RAW 264.7 cell extracts, UPLC-MS/MS; format: cell-based, mouse; details: 30 min

Row | Compound | IC50 (rat brain FAAH) [nM] | Effect on hydrolysis of exogenous [3H]AEA by intact cells (RAW 264.7 cells [1]) | Effect on basal and LPS + INF-γ-stimulated PGD2 and PGE2 production (RAW 264.7 cells [2]; 10 μM) | Effect on levels of 2-AG in the cell extracts (RAW 264.7 cells [2]; 10 μM, unstimulated and LPS + INF-γ-treated) | Effect on levels of AEA and related N-acylethanolamines in the cells (RAW 264.7 cells [2]; LPS + INF-γ-treated, ionomycin (5 μM) treated cells, URB597 1 μM, flurbiprofen and (R)-Flu-AM1 10 μM)
1 | Cc1cccnc1NC(=O)C(C)c1ccc(-c2ccccc2)c(F)c1 (centres unmarked) [Flu-AM1, 2-(2-fluorobiphenyl-4-yl)-N-(3-methylpyridin-2-yl)propanamide] | 440 |  |  |  | 
2 | CC(C(=O)O)c1ccc(-c2ccccc2)c(F)c1 (centres unmarked) [Flurbiprofen, flurbiprofen, reference compound] |  | would not be expected, and this was found to be the case | blocked | not affected | did not affect
